# Source: ChEMBL document CHEMBL3507680, “University of Dundee, Gates Library screen for HepG2 cell viability”
# Experiment: Human HepG2 cell viability assay in 384 well format
# Assay type: toxicity, cell-based
# Parameters: dose 125 nL, time 70.5 hour; concentration not given beside the values
# Conditions: HepG2 cells, read-out: Inhibition
row,Compound,cytotoxicity at 70.5 h
1,CN(Cc1ccc([S+](C)[O-])cc1)c1cncc(Cl)n1 (stereo not given),-15.4%
2,N#Cc1cccnc1N1CCN(C(=O)CCC(=O)c2cccs2)CC1,14.6%
3,CC(C)NC(=O)c1csc(NC2CC2)n1,0.174%
4,O=C(C1CN(CC2CC2)CC12CCOCC2)N1CCCC1 (stereo not given),16.3%
5,CCC(c1ccc(F)cc1F)N1CCN(CCO)CC1 (stereo not given),-6.18%
6,Cc1ccc(CN2CCc3onc(COc4cccnc4)c3C2)s1,-26.9%
7,Cc1noc(C)c1CC(=O)N1CCN(Cc2cscn2)CC1,-1.94%
8,COc1ccc(OCC2CCCN(c3nc(CO)cs3)C2)cc1 (stereo not given),-9.63%
9,CC(C)CC(O)C1CCN(Cc2ccc(N(C)C)nc2)CC1 (stereo not given),23.2%
10,Cn1cnc2cc(CCC(=O)Nc3nc[nH]n3)ccc21,-0.94%
11,CCS(=O)(=O)CC(C)N(C)C(=O)NCCc1cccc(F)c1F (stereo not given),-5.89%
12,COc1ncccc1NC(=O)C1CC1,-1.48%
13,O=C(N[C@H]1COC[C@@H]1N1CCCC1)c1c[nH]nc1C1CCCCC1,-4.22%
14,CCc1nc(N2CCCC(CO)(CCOC)C2)ncc1C (stereo not given),-7.73%
15,Cn1c(CN2CCOC[C@H]2c2nc(C(C)(C)C)co2)nc2ccccc21,-0.449%
16,Cc1c(C(=O)N[C@H]2CN(CCS(C)(=O)=O)C[C@@H]2C2CC2)cnn1C,-5.86%
17,CNS(=O)(=O)Cc1ccc(CNC(=O)Nc2cccnc2)cc1,13.3%
18,CC(C)S(=O)(=O)N1CCC(Cc2cccc(C(=O)O)c2)C1 (stereo not given),-4.82%
19,c1ccc(NC[C@@H]2CCC[C@@H]3CN(Cc4csnn4)C[C@@H]32)nc1,-5.27%
20,O=C(CC1COCCN1)N1CCC(N2CCc3ccccc3C2)CC1 (stereo not given),7.65%
21,COc1ccc(NC(=O)Nc2cnc(N3CCN(C)CC3)nc2)cc1Cl,-0.129%
22,N#Cc1cc(C#N)c(SCCC(=O)Nc2ccc(F)cc2)nc1N,-12.6%
23,Cc1noc(CN(Cc2ccco2)Cc2cccc3c2OCO3)n1,-1.63%

row,Compound,cytotoxicity at 70.5 h
1,CC(=O)N1CCN(C(=O)CCCc2nc(C(C)C)no2)CC1,11.7%
2,CC1CCN(S(=O)(=O)c2ccc(C(=O)N3CCSCC3)cc2)CC1,-13%
3,Cc1cc(C)n(-c2ccc(N3CCCSCC3)nc2)n1,-0.674%
4,Cc1ncc(CC(=O)N2CCC3(CCC(=O)N(C4CC4)C3)CC2)c(=O)[nH]1,5.88%
5,O=C(O)c1cnc(OCC2CC2)c(Br)c1,-4.12%
6,N#Cc1cccc(NC(=O)N[C@H](CO)Cc2ccc(O)cc2)c1,-9.73%
7,Cc1csc(CN2CCC[C@]3(C[C@@H](Oc4ccccn4)CO3)C2)n1,1.82%
8,CC(C)c1nc(CN(C)C(=O)CCS(=O)(=O)c2ccccc2)no1,-8.68%
9,COCc1noc(CCC(=O)c2ccc3c(c2)OCCO3)n1,-19.1%
10,O=C(c1nc2sccn2c1-c1ncc[nH]1)N1CCCCC1,-17.8%
11,Cc1nnc(CN(C)CC2CCCN2c2cccnn2)o1 (stereo not given),-3.53%
12,Cc1cc2nc(C3CCCCC3)c(-c3ccnc(NCCO)n3)cn2n1,-5.35%
13,CNC(=O)C(NC(=O)c1ccn(C)c(=O)c1)c1ccccc1 (stereo not given),33.4%
14,O=C(C1CC=CC1)N1CCC2(CCC(=O)N2Cc2cccc(F)c2)CC1,2.09%
15,COc1cc(C)nc(N2CCN(C(C)c3nc(C4CC4)no3)CC2)n1 (stereo not given),-10.4%
16,COCCOc1cccc(C(=O)N2CCCCC2c2nccs2)c1 (stereo not given),-3.68%
17,CC(C)(C)c1nc(CC(=O)Nc2cnccc2O)cs1,-2.57%
18,Cc1ccccc1CN1CCN(C(=O)c2ccn(C(C)(C)C)c2)CC1,16.3%
19,COc1cccc(C(=O)Oc2cc(=O)n3cccc(C)c3n2)c1,-24.8%
20,CC1CN(CC(=O)NC(=O)NCc2ccccc2)CCO1 (stereo not given),7.19%
21,CCOC(=O)c1nnc2ccccc2c1N1CCN(C(C)C)CC1,-4.21%
22,Cc1ccc(-c2nc(CC3CCN(C)CC3)no2)cc1N1CCNC1=O,-7.33%
23,CCN(Cc1nc2c(cnn2C)c(=O)[nH]1)c1ccccc1,3.68%

row,Compound,cytotoxicity at 70.5 h
1,O=C(Cc1ccc2c(c1)CCO2)Nc1ccc(-n2cncn2)nc1,16.4%
2,c1ccc(-c2ncc(CN3CCC4(CCNCC4)C3)cn2)cc1,-7.74%
3,CC(C)c1nc(C2CCCN2Cc2ccn(C)c(=O)c2)no1 (stereo not given),-0.609%
4,CC(NC(=O)C1=NN(C)C(=O)CC1)c1cccc(Cl)c1 (stereo not given),-85.8%
5,CCC1c2ccsc2CCN1C(=O)NCc1cccnc1OC (stereo not given),-11.2%
6,Cc1cnn(CC2CCCCN2C(=O)c2ccnc(N(C)C)c2)c1 (stereo not given),-17.7%
7,COCCNC(=O)Cn1cc(NC(=O)c2ccc(C(C)(C)C)cc2)cn1,33.3%
8,CNC(=O)C1CCCN(c2nc(-c3ccco3)nc3c2CCNCC3)C1 (stereo not given),-4.06%
9,N#CCCN(C(=O)CN1CCCC1C1CCCCC1)c1ccccc1 (stereo not given),11.9%
10,CCn1cc(NC(=O)NCc2ccc3c(c2)OCCO3)cn1,-13%
11,CC(C)C(C(=O)N1CCCN(Cc2cscn2)CC1)n1cncn1 (stereo not given),-4.6%
12,CN(CCN1CCCCCC1)C(=O)c1cc(CN2CCCC(O)C2)on1 (stereo not given),-10.1%
13,N#Cc1cccc(CN2CCCC2Cn2cncn2)c1 (stereo not given),-4.98%
14,O=C(Cn1ncc2ccccc21)Nc1ccnn1CC1CCOC1 (stereo not given),-23.1%
15,CCc1cc(NCCS(=O)(=O)N(C)C)nc(N2CCOCC2)n1,-13.2%
16,COc1c(CNC2CCN(C(=O)C3CC3)CC2)c(C(C)C)nn1C,0.393%
17,CSCC(C)(O)CNS(=O)(=O)c1ccc(Br)cc1 (stereo not given),23.8%
18,CCN(CC)c1ccc(NS(=O)(=O)c2cnn(CC)c2)cn1,1.09%
19,Cn1nc(CNC(=O)CC#N)c2c1CN(CC1CC1)CC2,-3.91%
20,Cc1ccc2oc(CN3CCC(C(=O)O)(n4ccnc4)CC3)c(C)c2c1,-16.8%
21,CCOCC1CN(Cc2cccc(C#N)c2)Cc2nccn2C1 (stereo not given),-1.89%
22,COC(=O)NCC(=O)NC1(C)CCc2ccccc2C1 (stereo not given),-8.98%
23,CCOCCNC(=O)Nc1cccc(-c2nccn2C)c1,-10%

row,Compound,cytotoxicity at 70.5 h
1,Cn1cc(S(=O)(=O)NCCc2nnc3ccccn23)cn1,-4.25%
2,CNc1nc(CNC(=O)Nc2ccc(OC(C)C)cc2F)cs1,-5.89%
3,COCCc1noc(CN(C)C(=O)C2COc3ccccc3C2)n1 (stereo not given),-5.1%
4,CN(C(=O)C1CCC1)C1CCN(c2ccccc2Cl)C1=O (stereo not given),-26.5%
5,NC(=O)C1(c2cnccn2)CCCN1Cc1ccc(Cl)c(F)c1 (stereo not given),-5.01%
6,O=C(CC1CC1)N1CC[C@H]2[C@@H]1CCC(=O)N2c1cccnc1,-16.4%
7,COc1ccc(-c2nccc(C3CCCN3C)n2)cc1 (stereo not given),-2.22%
8,Cc1cccc(C2CCN(S(=O)(=O)c3cn(C)cn3)CC2)n1,-8.21%
9,Cc1cc(C)c(C(=O)N[C@H](C(N)=O)c2ccccc2)c(=O)[nH]1,12.8%
10,Cc1noc(C)c1S(=O)(=O)N(CC(N)=O)CC(C)C,-20.2%
11,O=C(O)c1csc(S(=O)(=O)N2CCCc3cc(OC(F)F)ccc32)c1,-10.7%
12,Cc1cccc(NC(=O)CN2C(=O)CC(C)(C)c3ccccc32)n1,-8.87%
13,CC1=Nc2c(c(=O)[nH]n2C(C)C)C(c2ccc3nccnc3c2)S1 (stereo not given),-2.49%
14,O=C1CO[C@@H]2CN(Cc3cccs3)C[C@H]2N1CC1CC1,-9.66%
15,CCOCC(=O)N1CCC(c2nccn2CC2CC2)CC1,1.15%
16,COc1ccccc1CC1CCCN(CCN2CCOC2=O)C1 (stereo not given),-7.17%
17,COc1ccc(SC(C)C(=O)N2CCC(O)CC2)cc1 (stereo not given),-4.3%
18,O=C(NCCc1ccccc1)NCC(O)c1cccc(F)c1 (stereo not given),-3.34%
19,Cc1ccc(C(=O)NCCS(=O)(=O)Cc2ccccc2)c(=O)[nH]1,-9.89%
20,Cc1ccsc1CN(CCN(C)C)Cc1ccccn1,-4.97%
21,CC(=O)N1N=C(COc2ccc(Cl)cc2)OC1c1ccccc1 (stereo not given),17%
22,CC(C)n1cc(N2CC(C(=O)N3CCCC3)CC2=O)cn1 (stereo not given),-6.71%
23,CCn1c(C)nc2cc(NC(=O)CC3CCCCO3)ccc21 (stereo not given),-7.28%

row,Compound,cytotoxicity at 70.5 h
1,O=C1CN(C(=O)C2CN(c3ccccc3)CCO2)CCN1 (stereo not given),-5.72%
2,Cc1ncsc1CN1C[C@@H]2CN(Cc3cccnc3)CCO[C@@H]2C1,-5.27%
3,Cc1cncc(CN2C[C@@H](O)[C@H](Oc3ccccc3)C2)c1,-0.379%
4,CN(C)C(=O)C1CCN(c2cncc(-n3cccn3)n2)CC1,10.2%
5,Cc1cccc(CN2CCCC3(CCN(CC4CCCO4)CC3)C2)n1 (stereo not given),-11.4%
6,O=C(c1ccc(-n2ccnc2)nc1)N1CCCC(n2cccn2)C1 (stereo not given),1.69%
7,CNC(=O)C1(c2cnccn2)CCCN1C(=O)Cc1ccsc1 (stereo not given),-6.75%
8,O=C(CC(F)(F)F)NCC(O)c1ccc2ccccc2c1 (stereo not given),-3.75%
9,O=C(Cc1c[nH]c2ncccc12)NCC(O)c1ccccc1F (stereo not given),15.1%
10,O=C(O)[C@@H]1CN(CC2CCC2)C[C@H]1c1ccc(F)cc1,-7.16%
11,Cc1ncsc1CCN(C)C(=O)c1c(O)cccc1O,10.9%
12,O=C(NCCC(O)c1ccccc1)c1ccco1 (stereo not given),-8.79%
13,Cc1nc(CNC(=O)Nc2c(C)n[nH]c2C)cs1,-9.25%
14,CNC(=O)[C@H]1C[C@@H]2CN(C(=O)Nc3ccccc3)C[C@H]1O2,-25.2%
15,COCCn1nc(C(=O)N2CCOCC2C)ccc1=O (stereo not given),16.9%
16,CC(C)(C)c1n[nH]c(C2CN(C(=O)CCCn3cccn3)CCO2)n1 (stereo not given),0.387%
17,Cn1cc(-c2ncnc3c2CCN(C(=O)c2cscn2)CC3)cn1,22.4%
18,Cc1nc(C2CCCN(C(=O)c3ccc(S(C)(=O)=O)cc3)C2)no1 (stereo not given),-6.59%
19,CS(=O)(=O)c1nccn1CCOc1ccccc1F,13.8%
20,CCOCC(O)CN1CCN(C(=O)c2cc(F)ccc2C)CC1 (stereo not given),-18.9%
21,NC(=O)C1CCN(c2ccc3cc(Br)ccc3n2)C1 (stereo not given),-89.2%
22,O=C1NC(=O)c2c3c(nc(O)c21)CCCC3,0.775%
23,N#Cc1ccc(CNC(=O)NC2CCCN(c3ncccn3)C2)cc1 (stereo not given),-9.27%
